From ChEMBL document CHEMBL2440050 (ACS Med Chem Lett, 2013)

Assays:
[1] = tested on: HCT-116; test: Growth inhibition of vinblastine-sensitive human HCT116 cells after 72 hrs by phosphatase assay; type: functional, cell-based; conditions: HCT-116, 72 h
[2] = tested on: HCT-116/VM46; test: Growth inhibition of vinblastine-resistant human HCT116/VM46 cells overexpressing P-gp after 72 hrs by phosphatase assay; type: functional, cell-based; conditions: HCT-116/VM46, 72 h
[3] = tested on: L1210; test: Growth inhibition of mouse L1210 cells after 72 hrs by phosphatase assay; type: functional, cell-based; conditions: L1210, 72 h
[4] = tested on: NCI-H520; test: Growth inhibition of human NCI-H520 cells after 72 hrs by MTS assay; type: functional, cell-based; conditions: NCI-H520, 72 h
[5] = tested on: MCF7; test: Growth inhibition of human MCF7 cells after 72 hrs by MTS assay; type: functional, cell-based; conditions: MCF7, 72 h
[6] = tested on: NCI-H520; test: Ratio of vinblastine IC50 to compound IC50 for human NCI-H520 cells by MTS assay; type: functional
[7] = tested on: ZR-75-1; test: Growth inhibition of human ZR-75-1 cells after 72 hrs by MTS assay; type: functional, cell-based; conditions: ZR-75-1, 72 h
[8] = tested on: HCT-116/VM46; test: Ratio of vinblastine IC50 to compound IC50 for vinblastine-resistant human HCT116/VM46 cells overexpressing P-gp by MTS assay; type: functional
[9] = tested on: HCT-116; test: Growth inhibition of vinblastine-sensitive human HCT116 cells after 72 hrs by MTS assay; type: functional, cell-based; conditions: HCT-116, 72 h
[10] = tested on: HCC70; test: Ratio of vinblastine IC50 to compound IC50 for human HCC70 cells by MTS assay; type: functional
[11] = tested on: HCC1143; test: Ratio of vinblastine IC50 to compound IC50 for human HCC1143 cells by MTS assay; type: functional
[12] = tested on: HCC1143; test: Growth inhibition of human HCC1143 cells after 72 hrs by MTS assay; type: functional, cell-based; conditions: HCC1143, 72 h
[13] = tested on: HCT-116; test: Ratio of vinblastine IC50 to compound IC50 for vinblastine-sensitive human HCT116 cells by MTS assay; type: functional
[14] = Growth inhibition of human KPL4 cells after 72 hrs by MTS assay; type: functional, cell-based; conditions: KPL4, 72 h
[15] = tested on: L1210; test: Ratio of vinblastine IC50 to compound IC50 for mouse L1210 cells by phosphatase assay; type: functional
[16] = tested on: HCT-116/VM46; test: Growth inhibition of vinblastine-resistant human HCT116/VM46 cells overexpressing P-gp after 72 hrs by MTS assay; type: functional, cell-based; conditions: HCT-116/VM46, 72 h
[17] = Growth inhibition of human SW403 cells after 72 hrs by MTS assay; type: functional, cell-based; conditions: SW-403, 72 h
[18] = tested on: T47D; test: Growth inhibition of human T47D cells after 72 hrs by MTS assay; type: functional, cell-based
[19] = Ratio of vinblastine IC50 to compound IC50 for human SW403 cells by MTS assay; type: functional
[20] = tested on: ZR-75-1; test: Ratio of vinblastine IC50 to compound IC50 for human ZR-75-1 cells by MTS assay; type: functional
[21] = tested on: PA-1; test: Growth inhibition of human PA1 cells after 72 hrs by MTS assay; type: functional, cell-based; conditions: PA-1, 72 h
[22] = tested on: AU565; test: Growth inhibition of human AU565 cells after 72 hrs by MTS assay; type: functional, cell-based; conditions: AU565, 72 h
[23] = tested on: MDA-MB-468; test: Growth inhibition of human MDA-MB-468 cells after 72 hrs by MTS assay; type: functional, cell-based; conditions: MDA-MB-468, 72 h
[24] = Growth inhibition of human LS 174T cells after 72 hrs by MTS assay; type: functional, cell-based; conditions: LS174T
[25] = Ratio of vinblastine IC50 to compound IC50 for human LNCaP-FGC cells by MTS assay; type: functional
[26] = tested on: HCT-116; test: Ratio of vinblastine IC50 to compound IC50 for vinblastine-sensitive human HCT116 cells by phosphatase assay; type: functional
[27] = tested on: PA-1; test: Ratio of vinblastine IC50 to compound IC50 for human PA1 cells by MTS assay; type: functional
[28] = Growth inhibition of human LNCaP-FGC cells after 72 hrs by MTS assay; type: functional, cell-based; conditions: LNCaP-Clone-FGC
[29] = tested on: LS174T; test: Ratio of vinblastine IC50 to compound IC50 for human LS 174T cells by MTS assay; type: functional
[30] = tested on: MDA-MB-468; test: Ratio of vinblastine IC50 to compound IC50 for human MDA-MB-468 cells by MTS assay; type: functional
[31] = tested on: HCT-116; test: Ratio of IC50 for vinblastine-resistant human HCT116/VM46 cells overexpressing P-gp to IC50 for vinblastine-sensitive human HCT116 cells by phosphatase assay; type: functional
[32] = tested on: AU565; test: Ratio of vinblastine IC50 to compound IC50 for human AU565 cells by MTS assay; type: functional
[33] = Ratio of vinblastine IC50 to compound IC50 for human KPL4 cells by MTS assay; type: functional
[34] = tested on: T47D; test: Ratio of vinblastine IC50 to compound IC50 for human T47D cells by MTS assay; type: functional
[35] = tested on: HCC70; test: Growth inhibition of human HCC70 cells after 72 hrs by MTS assay; type: functional, cell-based; conditions: HCC70, 72 h
[36] = tested on: HCT-116/VM46; test: Ratio of vinblastine IC50 to compound IC50 for vinblastine-resistant human HCT116/VM46 cells overexpressing P-gp by phosphatase assay; type: functional
[37] = tested on: HCT-116; test: Ratio of IC50 for vinblastine-resistant human HCT116/VM46 cells overexpressing P-gp to IC50 for vinblastine-sensitive human HCT116 cells by MTS assay; type: functional
[38] = target: Tubulin (Sus scrofa) (UniProt P02554+P02550); test: Displacement of [3H]-VBL from porcine tubulin after 60 mins relative to control; type: protein assay
Sequence of Tubulin (Sus scrofa) (P02550 whole entry, looked up): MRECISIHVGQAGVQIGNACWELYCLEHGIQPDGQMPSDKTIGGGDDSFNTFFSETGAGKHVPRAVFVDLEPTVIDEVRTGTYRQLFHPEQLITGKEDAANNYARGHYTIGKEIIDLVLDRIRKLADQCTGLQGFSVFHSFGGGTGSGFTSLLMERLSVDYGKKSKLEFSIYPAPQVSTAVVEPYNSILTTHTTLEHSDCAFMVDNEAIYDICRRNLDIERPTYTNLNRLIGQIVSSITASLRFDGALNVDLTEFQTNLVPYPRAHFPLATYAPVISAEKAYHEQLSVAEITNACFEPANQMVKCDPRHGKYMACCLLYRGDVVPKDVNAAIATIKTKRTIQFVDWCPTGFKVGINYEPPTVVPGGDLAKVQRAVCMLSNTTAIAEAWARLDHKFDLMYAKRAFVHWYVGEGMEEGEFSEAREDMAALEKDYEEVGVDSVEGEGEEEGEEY
Sequence of Tubulin (Sus scrofa) (P02554 whole entry, looked up): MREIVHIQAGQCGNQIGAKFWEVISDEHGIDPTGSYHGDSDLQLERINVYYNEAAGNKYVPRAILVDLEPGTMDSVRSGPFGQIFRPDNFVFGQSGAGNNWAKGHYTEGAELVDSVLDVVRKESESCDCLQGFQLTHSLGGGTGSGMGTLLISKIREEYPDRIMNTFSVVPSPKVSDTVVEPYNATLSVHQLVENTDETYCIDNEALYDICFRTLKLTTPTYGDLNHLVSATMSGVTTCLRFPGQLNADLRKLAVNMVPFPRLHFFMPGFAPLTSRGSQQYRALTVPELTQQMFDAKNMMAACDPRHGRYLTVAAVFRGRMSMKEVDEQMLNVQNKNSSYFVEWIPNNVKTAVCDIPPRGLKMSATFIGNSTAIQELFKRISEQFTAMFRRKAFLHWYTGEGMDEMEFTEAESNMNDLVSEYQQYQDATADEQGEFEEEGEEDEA

| SMILES | IC50 [1] [nM] | IC50 [2] [nM] | IC50 [3] [nM] | IC50 [4] [nM] | IC50 [5] [nM] | IC50 [12] [nM] | IC50 [16] [nM] | IC50 [18] [nM] | IC50 [23] [nM] | IC50 [7] [nM] | IC50 [14] [nM] | Ratio IC50 [15] | IC50 [17] [nM] | IC50 [21] [nM] | IC50 [22] [nM] | IC50 [24] [nM] | Ratio IC50 [26] | IC50 [28] [nM] | Ratio IC50 [31] | IC50 [35] [nM] | other results |
| --- | --- | --- | --- | --- | --- | --- | --- | --- | --- | --- | --- | --- | --- | --- | --- | --- | --- | --- | --- | --- | --- |
| CC[C@]1(NC(=O)N2CCCC2)C[C@H]2CN(CCc3c([nH]c4ccccc34)[C@@](C(=O)OC)(c3cc4c(cc3OC)N(C)[C@H]3[C@@](O)(C(=O)OC)[C@H](OC(C)=O)[C@]5(CC)C=CCN6CC[C@]43[C@@H]65)C2)C1 | 0.72 | 50 | 0.7 |  |  |  |  |  |  |  |  |  |  |  |  |  |  |  |  |  |  |
| CC[C@]1(NC(=O)N2CC=CCC2)C[C@H]2CN(CCc3c([nH]c4ccccc34)[C@@](C(=O)OC)(c3cc4c(cc3OC)N(C)[C@H]3[C@@](O)(C(=O)OC)[C@H](OC(C)=O)[C@]5(CC)C=CCN6CC[C@]43[C@@H]65)C2)C1 | 0.52 | 8.4 | 0.52 | 0.17 | > 12.5 | 0.13 | 6.4 | 0.51 | 0.4 | 0.71 | 0.06 | 10 | 0.5 | 0.11 | 0.15 | 0.46 | 10 | 0.45 | 13 | 0.21 | Ratio IC50 [6]: 10; Ratio IC50 [8]: 10; IC50 [9]: 0.22 nM; Ratio IC50 [10]: 10; Ratio IC50 [11]: 10; Ratio IC50 [13]: 10; Ratio IC50 [19]: 10; Ratio IC50 [20]: 10; Ratio IC50 [25]: 10; Ratio IC50 [27]: 10; Ratio IC50 [29]: 10; Ratio IC50 [30]: 10; Ratio IC50 [32]: 10; Ratio IC50 [33]: 10; Ratio IC50 [34]: 10; Ratio IC50 [36]: 80 |
| CC[C@]1(NC(=O)N2Cc3ccc(OC)cc3C2)C[C@H]2CN(CCc3c([nH]c4ccccc34)[C@@](C(=O)OC)(c3cc4c(cc3OC)N(C)[C@H]3[C@@](O)(C(=O)OC)[C@H](OC(C)=O)[C@]5(CC)C=CCN6CC[C@]43[C@@H]65)C2)C1 | 0.69 | 8.7 | 0.61 |  |  |  |  |  |  |  |  | 10 |  |  |  |  | 10 |  | 13 |  | Ratio IC50 [36]: 80 |
| CC[C@]1(NC(=O)N2Cc3ccccc3C2)C[C@H]2CN(CCc3c([nH]c4ccccc34)[C@@](C(=O)OC)(c3cc4c(cc3OC)N(C)[C@H]3[C@@](O)(C(=O)OC)[C@H](OC(C)=O)[C@]5(CC)C=CCN6CC[C@]43[C@@H]65)C2)C1 | 0.6 | 7.5 | 0.51 | 0.1 | > 12.5 | 0.09 | 3.5 | 0.41 | 0.39 | 0.45 | 0.04 | 10 | 0.45 | 0.11 | 0.11 | 0.45 | 10 | 0.24 | 13 | 0.04 | Ratio IC50 [6]: 10; Ratio IC50 [8]: 10; IC50 [9]: 0.16 nM; Ratio IC50 [10]: 10; Ratio IC50 [11]: 10; Ratio IC50 [37]: 20; Ratio IC50 [13]: 10; Ratio IC50 [19]: 10; Ratio IC50 [20]: 10; Activity [38]: 41.2%; Ratio IC50 [25]: 10; Ratio IC50 [27]: 10; Ratio IC50 [29]: 10; Ratio IC50 [30]: 10; Ratio IC50 [32]: 10; Ratio IC50 [33]: 10; Ratio IC50 [34]: 10; Ratio IC50 [36]: 80 |
| CC[C@]1(O)C[C@@H]2CN(CCc3c([nH]c4ccccc34)[C@@](C(=O)OC)(c3cc4c(cc3OC)N(C)[C@H]3[C@@](O)(C(=O)OC)[C@H](OC(C)=O)[C@]5(CC)C=CCN6CC[C@]43[C@@H]65)C2)C1 [VINBLASTINE] |  |  |  | 4.5 | > 110 | 3.8 | > 110 | 5 | 4.6 | 8 | 2.9 |  | 7.9 | 4.6 | 4 | 19.6 |  | 5.1 |  | 3.5 | Activity [38]: 50% |

More lines, in order of falling IC50 [1], values ahead:

| IC50 [1] [nM] | IC50 [2] [nM] | IC50 [3] [nM] | IC50 [4] [nM] | IC50 [5] [nM] | IC50 [12] [nM] | IC50 [16] [nM] | IC50 [18] [nM] | IC50 [23] [nM] | SMILES | IC50 [7] [nM] | IC50 [14] [nM] | Ratio IC50 [15] | IC50 [17] [nM] | IC50 [21] [nM] | IC50 [22] [nM] | IC50 [24] [nM] | Ratio IC50 [26] | IC50 [28] [nM] | Ratio IC50 [31] | IC50 [35] [nM] | other results |
| --- | --- | --- | --- | --- | --- | --- | --- | --- | --- | --- | --- | --- | --- | --- | --- | --- | --- | --- | --- | --- | --- |
| 3.1 | 55 | 5.3 |  |  |  |  |  |  | CC[C@]1(NC(=O)N2CCC(c3ccccc3)CC2)C[C@H]2CN(CCc3c([nH]c4ccccc34)[C@@](C(=O)OC)(c3cc4c(cc3OC)N(C)[C@H]3[C@@](O)(C(=O)OC)[C@H](OC(C)=O)[C@]5(CC)C=CCN6CC[C@]43[C@@H]65)C2)C1 |  |  |  |  |  |  |  |  |  |  |  |  |
| 0.88 | 50 | 2.1 |  |  |  |  |  |  | CC[C@]1(NC(=O)N2CCSCC2)C[C@H]2CN(CCc3c([nH]c4ccccc34)[C@@](C(=O)OC)(c3cc4c(cc3OC)N(C)[C@H]3[C@@](O)(C(=O)OC)[C@H](OC(C)=O)[C@]5(CC)C=CCN6CC[C@]43[C@@H]65)C2)C1 |  |  |  |  |  |  |  |  |  |  |  |  |
